From patent EP4692090A1 (Shanghai Fosun Pharmaceutical (Group) Co., Ltd., priority 2023, dated 2024)
Like-named read-outs stand apart in the source and are kept apart here.

Assays:
[1] = biological target: T1, ATR kinase (Homo sapiens, UniProt Q13535); assay: Inhibitory effect on ATR kinase activity (Caliper mobility shift, FAM-labeled RAD17 peptide substrate); type: biochemical
T1 construct: purchased Eurofins 14-953
Description: Test Example 1: Inhibitory effect of the compounds of the present disclosure on ATR kinase activity
Test compounds to be tested were serially diluted with DMSO (maximum concentration 1 µM, 10 concentrations with 3-fold serial dilution) and added to the wells of a 384-well reaction plate (Corning, #4512). 1 nM ATR kinase (Eurofins, #14-953), 5 mM substrate (FAM-labeled RAD17 peptide, FAM-ASELPASQPQPFSAKKK), 5 mM ATP and the compounds with corresponding concentrations reacted in a kinase reaction solution (50 mM HEPES, pH 7.5; 0.0015% Brij-35; 10 mM MnCl2, total volume of 20 µL) at 28°C for 3 hours. The reaction was terminated by adding 30 µL of stop solution (100 mM HEPES, pH 7.5; 0.015% Brij-35; 0.2% Coating Reagent #3, PerkinElmer; 50 mM EDTA). The reaction plate was placed on a Caliper instrument (PerkinElmer) for testing. The relative inhibitory activity of each compound concentration group was calculated using the following formula: % Inhibition = (Conversion rate of the blank control group without compound added - Conversion rate of the test compound group) / (Conversion rate of the blank control group - […]). The IC50 values were calculated using GraphPad analysis and fitted. […] Table 1. Inhibitory effect (IC50) of compounds on ATR kinase activity.

[2] = test system: LoVo cells; assay: LoVo cell proliferation assay (CellTiter-Glo); type: cell-based; details: maximum concentration 10 µM, 9 concentrations
Description: Test Example 2: LoVo cell proliferation assay
LoVo (ATCC, #CRL-229) cells in logarithmic growth phase were digested, counted, and plated into 96-well cell culture plates at 2,000 cells per well. The plates containing cells were incubated overnight at 37°C in a 5% CO2 incubator, and then test compounds with 3-fold gradient dilutions (maximum concentration: 10 µM, 9 concentrations) were added. DMSO was used as a blank control. After the LoVo cells containing the compounds or DMSO were incubated for an additional 5 days, an equal volume of CellTiter-Glo reagent (Promega, #7573) was added. After incubation at room temperature for 30 minutes, chemiluminescence was read using an Envision 2105 (PerkinElmer). The cell proliferation inhibition rate (%) for wells treated with each concentration of the compounds was calculated using the following formula. Then, with compound concentration as the horizontal axis and cell proliferation inhibition rate (%) as the vertical axis, GraphPad software was used to plot the data and determine the IC50 values of the test compounds. The results are shown in Table 2, wherein the IC50 ranges are defined as follows: A: ≤ 100 nM; 1000 nM ≥ B > 100 nM; C > 1000 nM.
Cell proliferation inhibition (%) = (1 - luminescence value of compound-treated group / average luminescence value of DMSO blank control group) × 100. Table 2. Inhibitory effect of compounds on LoVo growth

[3] = 1 nM ATR kinase (Eurofins), 28°C for 3 hours, maximum concentration 1 µM, 10 concentrations, read-out: ATR kinase IC50
[4] = LoVo cells, 2,000 cells per well, 5 days incubation, CellTiter-Glo, read-out: LoVo IC50
[5] = Homo sapiens, LoVo, 120 h, LoVo cells, 2,000 cells per well, 5 days incubation, CellTiter-Glo, read-out: LoVo IC50
[6] = read-out: ATR kinase IC50, 1 nM ATR kinase (Eurofins), 28°C for 3 hours, maximum concentration 1 µM, 10 concentrations
[7] = Homo sapiens, LoVo, 120 h, read-out: LoVo IC50 (nM), LoVo cells, 2,000 cells per well, 5 days incubation, CellTiter-Glo
[8] = read-out: LoVo IC50, LoVo cells, 2,000 cells per well, 5 days incubation, CellTiter-Glo

T1 sequence (Q13535 whole entry): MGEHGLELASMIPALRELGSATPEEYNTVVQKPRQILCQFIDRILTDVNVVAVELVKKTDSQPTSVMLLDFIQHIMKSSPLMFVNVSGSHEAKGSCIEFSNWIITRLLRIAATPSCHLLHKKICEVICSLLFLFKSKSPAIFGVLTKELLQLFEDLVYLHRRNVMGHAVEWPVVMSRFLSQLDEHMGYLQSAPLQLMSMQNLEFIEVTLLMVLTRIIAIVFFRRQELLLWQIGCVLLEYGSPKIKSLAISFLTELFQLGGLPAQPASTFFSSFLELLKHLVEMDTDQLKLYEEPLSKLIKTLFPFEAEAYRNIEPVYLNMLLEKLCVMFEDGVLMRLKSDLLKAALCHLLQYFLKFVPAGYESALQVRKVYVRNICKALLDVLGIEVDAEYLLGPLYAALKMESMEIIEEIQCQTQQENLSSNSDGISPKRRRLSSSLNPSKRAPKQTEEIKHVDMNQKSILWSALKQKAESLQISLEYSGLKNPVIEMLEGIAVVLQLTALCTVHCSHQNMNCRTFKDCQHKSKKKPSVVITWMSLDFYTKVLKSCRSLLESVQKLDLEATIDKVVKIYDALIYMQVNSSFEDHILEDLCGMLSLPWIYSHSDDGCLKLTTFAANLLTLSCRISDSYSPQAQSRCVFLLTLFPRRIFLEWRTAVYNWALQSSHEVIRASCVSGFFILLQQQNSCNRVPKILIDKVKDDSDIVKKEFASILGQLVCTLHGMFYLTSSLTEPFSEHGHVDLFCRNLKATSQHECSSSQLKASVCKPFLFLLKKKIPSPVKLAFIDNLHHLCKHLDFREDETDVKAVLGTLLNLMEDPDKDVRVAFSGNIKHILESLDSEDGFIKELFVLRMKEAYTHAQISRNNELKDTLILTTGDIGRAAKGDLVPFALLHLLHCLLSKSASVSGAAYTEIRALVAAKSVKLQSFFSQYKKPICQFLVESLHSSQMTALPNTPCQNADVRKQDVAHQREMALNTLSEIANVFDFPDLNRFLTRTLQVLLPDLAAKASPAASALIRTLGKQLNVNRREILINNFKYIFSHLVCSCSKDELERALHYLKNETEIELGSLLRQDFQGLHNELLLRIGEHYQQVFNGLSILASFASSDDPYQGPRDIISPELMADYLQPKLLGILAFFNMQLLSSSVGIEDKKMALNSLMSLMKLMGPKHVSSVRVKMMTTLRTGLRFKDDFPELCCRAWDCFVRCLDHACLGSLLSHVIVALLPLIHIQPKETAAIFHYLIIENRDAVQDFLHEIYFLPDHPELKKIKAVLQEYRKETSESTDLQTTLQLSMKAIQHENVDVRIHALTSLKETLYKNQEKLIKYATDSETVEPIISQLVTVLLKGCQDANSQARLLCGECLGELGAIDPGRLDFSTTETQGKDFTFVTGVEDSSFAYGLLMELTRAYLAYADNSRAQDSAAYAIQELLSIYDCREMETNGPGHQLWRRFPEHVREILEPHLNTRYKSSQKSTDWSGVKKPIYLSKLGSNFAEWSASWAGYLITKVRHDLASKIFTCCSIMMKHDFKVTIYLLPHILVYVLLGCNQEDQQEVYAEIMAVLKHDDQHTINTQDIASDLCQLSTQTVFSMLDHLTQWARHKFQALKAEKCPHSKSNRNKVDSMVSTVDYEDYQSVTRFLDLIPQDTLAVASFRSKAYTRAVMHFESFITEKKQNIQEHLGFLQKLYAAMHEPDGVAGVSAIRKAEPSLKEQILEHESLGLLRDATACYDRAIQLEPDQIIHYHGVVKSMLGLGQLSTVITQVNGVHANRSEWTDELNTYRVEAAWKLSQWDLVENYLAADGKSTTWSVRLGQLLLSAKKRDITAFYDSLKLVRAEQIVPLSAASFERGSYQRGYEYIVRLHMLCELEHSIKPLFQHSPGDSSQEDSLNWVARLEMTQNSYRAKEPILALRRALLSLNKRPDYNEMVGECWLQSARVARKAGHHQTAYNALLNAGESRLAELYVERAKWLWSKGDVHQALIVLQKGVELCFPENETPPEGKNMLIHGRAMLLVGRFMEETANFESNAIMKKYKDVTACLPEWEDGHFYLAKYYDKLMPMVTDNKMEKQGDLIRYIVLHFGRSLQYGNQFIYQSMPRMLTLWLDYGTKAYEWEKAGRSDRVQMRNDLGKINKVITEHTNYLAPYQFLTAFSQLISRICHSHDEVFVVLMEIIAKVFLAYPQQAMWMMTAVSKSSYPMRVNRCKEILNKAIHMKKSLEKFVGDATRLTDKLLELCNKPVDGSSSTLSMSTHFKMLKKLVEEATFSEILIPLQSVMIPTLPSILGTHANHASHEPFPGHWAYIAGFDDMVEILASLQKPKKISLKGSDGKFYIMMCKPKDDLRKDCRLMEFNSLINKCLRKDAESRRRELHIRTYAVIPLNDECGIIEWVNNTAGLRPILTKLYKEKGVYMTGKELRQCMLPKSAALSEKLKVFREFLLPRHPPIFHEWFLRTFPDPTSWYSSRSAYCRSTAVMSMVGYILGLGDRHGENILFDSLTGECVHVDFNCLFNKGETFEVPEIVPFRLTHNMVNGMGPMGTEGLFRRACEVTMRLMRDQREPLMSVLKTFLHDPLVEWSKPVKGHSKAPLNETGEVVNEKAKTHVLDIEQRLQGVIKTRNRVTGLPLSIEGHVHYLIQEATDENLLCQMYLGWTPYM
T1 sequence (Q8WXE1 whole entry partner): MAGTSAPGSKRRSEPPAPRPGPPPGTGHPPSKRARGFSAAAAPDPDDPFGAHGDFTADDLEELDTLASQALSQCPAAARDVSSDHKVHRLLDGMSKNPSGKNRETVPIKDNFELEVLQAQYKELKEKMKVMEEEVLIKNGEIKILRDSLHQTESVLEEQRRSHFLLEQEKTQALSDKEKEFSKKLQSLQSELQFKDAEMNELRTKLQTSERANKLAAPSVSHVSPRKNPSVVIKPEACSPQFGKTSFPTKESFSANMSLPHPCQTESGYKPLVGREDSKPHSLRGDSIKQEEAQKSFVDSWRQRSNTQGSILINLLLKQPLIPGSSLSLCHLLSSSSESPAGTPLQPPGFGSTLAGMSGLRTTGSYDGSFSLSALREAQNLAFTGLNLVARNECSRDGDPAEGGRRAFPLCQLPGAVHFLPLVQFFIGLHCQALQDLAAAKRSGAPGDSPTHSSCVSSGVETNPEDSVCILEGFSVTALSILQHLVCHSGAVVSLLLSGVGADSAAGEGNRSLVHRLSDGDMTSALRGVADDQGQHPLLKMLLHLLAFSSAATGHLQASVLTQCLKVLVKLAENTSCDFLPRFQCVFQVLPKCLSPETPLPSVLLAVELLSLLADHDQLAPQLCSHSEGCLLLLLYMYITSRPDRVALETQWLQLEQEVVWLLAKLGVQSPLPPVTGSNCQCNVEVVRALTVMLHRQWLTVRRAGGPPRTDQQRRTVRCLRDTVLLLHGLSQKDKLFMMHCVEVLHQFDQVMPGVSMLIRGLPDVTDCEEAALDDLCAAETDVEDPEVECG

Compound	IC50 [1, 3] [nM]	IC50 [2, 4] [nM]	IC50 [2, 5] [nM]	also measured
C[C@@H]1COCCN1c1cc2c3c(nn(-c4cc[nH]n4)c3n1)CCN(C1CC(C(F)(F)F)C1)C2 (single isomer, unassigned) [Compound 13A]	10 to 100	100 to 1000	–	–
C[C@@H]1COCCN1c1cc2c3c(nn(-c4cc[nH]n4)c3n1)CCN(C1CC(C(F)(F)F)C1)C2 (single isomer, unassigned) [Compound 13B]	100 to 1000	> 1000	–	–
C[C@@H]1COCCN1c1cc2c3c(nn(-c4cc[nH]n4)c3n1)CCN(C(=O)C1CC3(C1)CC3(F)F)C2 (single isomer, unassigned) [Compound 20A]	10 to 100	–	> 1000	–
C[C@@H]1COCCN1c1cc2c3c(nn(-c4cc[nH]n4)c3n1)CCN(C(=O)C1CC3(C1)CC3(F)F)C2 (single isomer, unassigned) [Compound 20B]	10 to 100	> 1000	–	–
CC1c2cc(N3CCOC[C@H]3C)nc3c2c(nn3-c2cc[nH]n2)CCN1C1CC1 (single isomer, unassigned) [Compound 31A]	< 10	–	< 100	–
CC1c2cc(N3CCOC[C@H]3C)nc3c2c(nn3-c2cc[nH]n2)CCN1C1CC1 (single isomer, unassigned) [Compound 31B]	< 10	< 100	–	–
CC1c2cc(N3CCOC[C@H]3C)nc3c2c(nn3-c2cc[nH]n2)CCN1C1COC1 (single isomer, unassigned) [Compound 32A]	10 to 100	–	100 to 1000	–
CC1c2cc(N3CCOC[C@H]3C)nc3c2c(nn3-c2cc[nH]n2)CCN1C1COC1 (single isomer, unassigned) [Compound 32B]	10 to 100	< 100	–	–
CC1c2cc(N3CCOC[C@H]3C)nc3c2c(nn3-c2cc[nH]n2)CCN1C(=O)C1(C(F)(F)F)CC1 (single isomer, unassigned) [Compound 33A]	–	–	–	IC50 [1, 6]: < 10 nM; IC50 [2, 7]: < 100 nM
CC1c2cc(N3CCOC[C@H]3C)nc3c2c(nn3-c2cc[nH]n2)CCN1C(=O)C1(C(F)(F)F)CC1 (single isomer, unassigned) [Compound 33B]	–	–	–	IC50 [1, 6]: 100 to 1000 nM; IC50 [2, 8]: 100 to 1000 nM
CC1c2cc(N3CCOC[C@H]3C)nc3c2c(nn3-c2cc[nH]n2)CCN1C (single isomer, unassigned) [Compound 35A]	< 10	–	< 100	–
CC(C)N1CCc2nn(-c3cc[nH]n3)c3nc(N4CCOC[C@H]4C)cc(c23)C1C (single isomer, unassigned) [Compound 36A]	< 10	–	100 to 1000	–
CC(C)N1CCc2nn(-c3cc[nH]n3)c3nc(N4CCOC[C@H]4C)cc(c23)C1C (single isomer, unassigned) [Compound 36B]	< 10	< 100	–	–
CC1c2cc(N3CCOC[C@H]3C)nc3c2c(nn3-c2cc[nH]n2)CCN1C(=O)C1(C#N)CC1 (single isomer, unassigned) [Compound 40A]	–	–	–	IC50 [1, 6]: < 10 nM; IC50 [2, 7]: 100 to 1000 nM
CC1c2cc(N3CCOC[C@H]3C)nc3c2c(nn3-c2cc[nH]n2)CCN1C(=O)C1(C#N)CC1 (single isomer, unassigned) [Compound 40B]	–	–	–	IC50 [1, 6]: 10 to 100 nM; IC50 [2, 8]: 100 to 1000 nM
C[C@@H]1COCCN1c1cc2c3c(nn(-c4cc[nH]n4)c3n1)CCN(C)C2=O [Compound 137, (R)-7-methyl-4-(3-methylmorpholinyl)-2-(1H-pyrazol-3-yl)-2,7,8,9-tetrahydro-6H-1,2,3,7-tetraazabenzo[cd]azulene-6-one]	–	–	–	IC50 [1, 6]: 10 to 100 nM

Further lines, with some results ahead:

IC50 [1, 3] [nM]	IC50 [2, 4] [nM]	IC50 [2, 5] [nM]	Compound	also measured
10 to 100	–	< 100	CC1c2cc(N3CCOC[C@H]3C)nc3c2c(nn3-c2cc[nH]n2)CCN1S(=O)(=O)C1CC1 (single isomer, unassigned) [Compound 37A]	–
< 10	< 100	–	CC1c2cc(N3CCOC[C@H]3C)nc3c2c(nn3-c2cc[nH]n2)CCN1S(=O)(=O)C1CC1 (single isomer, unassigned) [Compound 37B]	–
< 10	< 100	–	CC1c2cc(N3CCOC[C@H]3C)nc3c2c(nn3-c2cc[nH]n2)CCN1S(C)(=O)=O (single isomer, unassigned) [Compound 39A]	–
< 10	> 1000	–	CC1c2cc(N3CCOC[C@H]3C)nc3c2c(nn3-c2cc[nH]n2)CCN1S(C)(=O)=O (single isomer, unassigned) [Compound 39B]	–
< 10	–	< 100	CCN1CCc2nn(-c3cc[nH]n3)c3nc(N4CCOC[C@H]4C)cc(c23)C1C (single isomer, unassigned) [Compound 41A]	–
< 10	< 100	–	CCN1CCc2nn(-c3cc[nH]n3)c3nc(N4CCOC[C@H]4C)cc(c23)C1C (single isomer, unassigned) [Compound 41B]	–
< 10	–	< 100	CC1c2cc(N3CCOC[C@H]3C)nc3c2c(nn3-c2cc[nH]n2)CCN1C1(C#N)CC1 (single isomer, unassigned) [Compound 42A]	–
10 to 100	< 100	–	CC1c2cc(N3CCOC[C@H]3C)nc3c2c(nn3-c2cc[nH]n2)CCN1C1(C#N)CC1 (single isomer, unassigned) [Compound 42B]	–
10 to 100	–	100 to 1000	CC1c2cc(N3CCOC[C@H]3C)nc3c2c(nn3-c2cc[nH]n2)CCN1CC1COC1 (single isomer, unassigned) [Compound 44A]	–
< 10	< 100	–	CC1c2cc(N3CCOC[C@H]3C)nc3c2c(nn3-c2cc[nH]n2)CCN1S(C)(=N)=O (single isomer, unassigned) [Compound 46C]	–
< 10	–	< 100	[2H]C([2H])([2H])N1CCc2nn(-c3cc[nH]n3)c3nc(N4CCOC[C@H]4C)cc(c23)C1C (single isomer, unassigned) [Compound 47A]	–
< 10	< 100	–	[2H]C([2H])([2H])N1CCc2nn(-c3cc[nH]n3)c3nc(N4CCOC[C@H]4C)cc(c23)C1C (single isomer, unassigned) [Compound 47B]	–
10 to 100	–	100 to 1000	CCS(=O)(=O)N1CCc2nn(-c3cc[nH]n3)c3nc(N4CCOC[C@H]4C)cc(c23)C1C (single isomer, unassigned) [Compound 48A]	–
< 10	< 100	–	CCS(=O)(=O)N1CCc2nn(-c3cc[nH]n3)c3nc(N4CCOC[C@H]4C)cc(c23)C1C (single isomer, unassigned) [Compound 48B]	–
< 10	–	< 100	CC1c2cc(N3CCOC[C@H]3C)nc3c2c(nn3-c2cc[nH]n2)CCN1S(=O)(=O)C1(C)CC1 (single isomer, unassigned) [Compound 49A]	–
10 to 100	100 to 1000	–	CC1c2cc(N3CCOC[C@H]3C)nc3c2c(nn3-c2cc[nH]n2)CCN1S(=O)(=O)C1(C)CC1 (single isomer, unassigned) [Compound 49B]	–
100 to 1000	> 1000	–	CC(C)C1(O)CCn2nc(-c3cc[nH]n3)c3nc(N4CCOC[C@H]4C)cc1c32 (single isomer, unassigned) [Compound 72A]	–
100 to 1000	100 to 1000	–	CC(C)C1(O)CCn2nc(-c3cc[nH]n3)c3nc(N4CCOC[C@H]4C)cc1c32 (single isomer, unassigned) [Compound 72B]	–
< 10	–	100 to 1000	C[C@@H]1COCCN1c1cc2c3c(nn(-c4cc[nH]n4)c3n1)CCN(S(C)(=O)=O)C2C1CC1 (single isomer, unassigned) [Compound 138A]	–
10 to 100	–	–	CC(C(N)=O)N1C(=O)CCn2nc(-c3cc[nH]n3)c3nc(N4CCOC[C@H]4C)cc1c32 (stereo partly drawn) [Compound 104, 2-(4-((R)-3-methylmorpholino)-7-oxo-2-(1H-pyrazol-3-yl)-8,9-dihydro-1,3,6,9a-tetraazabenzo[cd]azulene-6(7H)-yl)propanamide]	–
